Like-named read-outs stand apart in the source and are kept apart here. Marks after values point to notes of the source that are not given here.
Key:
[1] = Detection of compounds in brain after in vivo administration; conditions: for Detection in brain after i.v. administration: B6C3 mouse, 5 mg/kg body weight i.v. once, brain samples; for Detection in brain after oral administration, feeding pellet preparation / Detection in brain after oral administration, oral gavage administration: mouse; for Detection in brain after oral administration, feeding pellet preparation: brain samples after one week feeding; for Detection in brain after oral administration, oral gavage administration: five to seven doses over two or three days, sampling 30 min. after last application
in vitro = conditions: human
Aβ1-42 peptide = Aβ1-42 peptide (Homo sapiens, UniProt P05067); assay: Thioflavin T (Thio T)-assay of Aβ aggregation; format: biochemical
Aβ1-42 peptide, sequence (P05067 672-713): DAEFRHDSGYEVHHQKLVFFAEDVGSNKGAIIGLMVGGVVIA

Tg2576 mice = assay: Contextual fear conditioning in Tg2576 mice; format: in vivo, mouse; conditions: 9-month-old Tg2576 mice, feeding pellets for 12 weeks
Protocol: Groups of Tg2576 mice overexpressing the 695-amino acid isoform of human amyloid precursor protein containing a Lys670→Asn, Met671→Leu mutation (Hsiao, K. Science 1996) and wildtype control mice (13-21 per phenotype) were conditioned on day 1 by placing a subject mouse in a contextual fear conditioning chamber (Med Associates, […], Vt.). Exploration was allowed for 2 min, and an auditory cue was presented for 15 s accompanied by an electrical foot shock during the last 2 s. This procedure was repeated and mice were removed from the chamber after 30 s. Twenty hours later, mice were returned to the chamber in which conditioning occured, and their freezing behaviour (fear) was monitored. Freezing was defined as the lack of all movements, except those required for breathing (Comery, T. A., et al. Journal of Neuroscience, 2005). Data were analysed by two-way ANOVA in the S programming environment, followed by Fischer's least significant difference (LSD) pairwise comparison of group means at the p<0.05 significance level.
The contextual fear conditioning paradigm is a form of Pavlovian learning in which an association is made between stimuli and their aversive consequences. Studies of brain function implicate the amygdala in regulating fear, and the hippocampus in regulating the learning of the context in which a fearful event occurred.
The brain circuitry in wild type mice is intact and they are better able to associate an aversive foot shock with the context or environment in which the shock took place. They therefore show more freezing. Transgenic Alzheimer mice have compromised brain circuitry due to the toxic effects of amyloid-beta protein. They are therefore less able to associate an aversive shock with a context and show less freezing.
A substance that reverses the toxic effects of amyloid-beta in Alzheimer's mice will help in reconsolidating the impaired brain circuitry so that these mice begin to show more fear (freezing behavior) after treatment. This paradigm is therefore a robust method for showing the effect of drug candidate molecules in Alzheimer mice.

5XFAD mice = assay: Nest building behaviour in 5XFAD mice; format: in vivo, mouse
Protocol: 3a: Nestlet usage; 3b: Nestlet quality score.
One hour before the dark phase, mice were housed individually in a cage with wood-chip bedding material. Each mouse was given 3 g of nestlet material made of compressed cotton (Lillico Biotech, UK). The amount of intact, i.e. non-used, nesting material was weighed after 16 hours and nest building was assessed using the following rating scale (Deacon et al., 2006, Tomida et al., 2009): 1, >90% intact; 2, 50-90% intact; 3, 10-50% intact: 4, 0-10% intact, but flat nest; 5, 0-10%, with nests higher than the mice. The amount of intact nesting material was weighed. The data were non-normally distributed.
Non normally distributed data were analyzed by a Kruskal Wallis test. A post-hoc test using Mann-Whitney tests with Bonferroni corrections was then used for group comparisons.
Nest building is one of several species-typical behavior in mice seen in semi-naturalistic situations. […] Alzheimer's disease in 5XFAD mice will damage these areas, leading to memory impairments in some standard cognitive tests, and to an impairment of species-typical behaviors like nesting.
The brain circuitry of wild type mice is intact so they show robust nest building behavior. Transgenic 5XFAD on the other hand have impaired brain circuitry due to the noxious effects of human amyloid-beta protein. They are therefore less able to fulfill this important house-keeping species typical behavior (Deacon R M. (2006): Assessing nest building in mice. Nat Protoc. 2006; 1(3):1117-9; Tomida et al (2009): Usp46 is a quantitative trait gene regulating mouse immobile behavior in the tail suspension and forced swimming tests. Nat Genet. 2009 June; 41(6):688-95. Epub 2009 May 24.).

[2] = set-up: Detection in brain after i.v. administration: key to the marks not given beside the values; conditions: mouse, in vivo
[3] = 30 μM Aβ1-42 peptide, 48 h at 37° C., vs DMSO control, read-out: ThioT: IC50
[4] = transgenic and wild-type mice vs control mice

c1ccc(N=Nc2ccc(Nc3ccccc3)cc2)cc1 [Compound 1, N-phenyl-4-(phenyldiazenyl)aniline]
Detection in brain after i.v. administration [1]: ++
Detectability after oral administration ([1]; mouse brain, oral gavage or feeding pellets): excellent
Detection in brain after oral administration, feeding pellet preparation [1]: ++^a), b)
Detection in brain after oral administration, oral gavage administration [1]: ++^a), b)
IC50 at 48 h (in vitro): > 30 µM
IC50 (Aβ1-42 peptide; [3]): 4.5 µM
Contextual memory (freezing behaviour) (Tg2576 mice): improvement

O=[N+]([O-])c1ccc(N=Nc2ccc(Nc3ccccc3)cc2)cc1 [Compound 2, 4-((4-nitrophenyl)diazenyl)-N-phenylaniline]
Detection in brain after i.v. administration [1]: ++
Detection in brain after oral administration, feeding pellet preparation [1]: ++^a), b)
Detection in brain after oral administration, oral gavage administration [1]: ++^a), b)
IC50 at 48 h (in vitro): > 100 µM
Nest building behavior (5XFAD mice; 5XFAD mice, pelleted mouse chow for 8.5 months): improved
Nest building behavior in transgenic mice (5XFAD mice; transgenic 5XFAD mice, higher concentration (625 mg/kg feed) vs control mice): significantly enhanced
Nest building behavior (nestlet usage, FIG. 3a) (5XFAD mice; [4]): increased
Nestlet quality score (FIG. 3b) (5XFAD mice; [4]): increases
IC50 (Aβ1-42 peptide; [3]): 1.7 µM
Contextual memory (freezing behaviour) (Tg2576 mice): improvement

CN(C)c1ccc(N=Nc2ccc(N)cc2)cc1 [Compound 9, 4-((4-aminophenyl)diazenyl)-N,N-dimethylaniline]
IC50 (in vitro): > 100 µM
Detection in brain after i.v. administration ([2]; iv, 5 mg/kg): ++
Detectability after oral administration ([2]; po): excellent
Detection in brain after oral administration, feeding pellet preparation ([2]; po): ++^a)/+^b)
Detection in brain after oral administration, oral gavage administration ([2]; po): ++^a)/+^b)
IC50 (Aβ1-42 peptide): 2.1 µM
Contextual memory (freezing behaviour) (Tg2576 mice): improvement
